{"source": "paper PMC7539012", "about": "“Hyperphosphorylated tau aggregation and cytotoxicity modulators screen identified prescription drugs linked to Alzheimer's disease and cognitive functions” (Scientific Reports, 2020)", "note": "Counter-ions that a name gives are not always drawn.", "data": [{"tested_on": "T1, 1N4R p-tau", "T1 construct": "made in house; host or cells: E. coli (PIMAX system)", "test": "p-tau aggregation modulator screen of 1280-compound library (ThS fluorescence net change over 16 h);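 on ThS net change: 30 µM compound with 6 µM p-tau over 16 h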", "format": "biochemical", "design": "key to PTAI>3SD: *: PTAI>3SD", "conditions": "not given", "values": [{"molecule": "O=C(NCNC(=O)NC1C(=O)NC(=O)N1CO)NC1C(=O)NC(=O)N1CO", "note": "(centres unmarked) [Imidurea]", "ThS net change": 463}, {"molecule": "O.O=P(O)(O)C(O)(Cc1cccnc1)P(=O)(O)O", "note": "[Risedronic acid monohydrate]", "ThS net change": 455}, {"molecule": "COc1cccc2c1C(=O)c1c(O)c3c(c(O)c1C2=O)C[C@@](O)(C(=O)CO)C[C@@H]3O[C@H]1C[C@H](N)[C@@H](O)[C@H](C)O1", "note": "[Epirubicin hydrochloride]", "ThS net change": 315}, {"molecule": "C=C[C@H]1CN2CC[C@H]1C[C@@H]2[C@@H](O)c1ccnc2ccc(OC)cc12.Cl.O", "note": "[Quinidine hydrochloride monohydrate]", "ThS net change": 282}, {"molecule": "CC(C)(C)NC(=O)[C@@H]1CN(Cc2cccnc2)CCN1C[C@@H](O)C[C@@H](Cc1ccccc1)C(=O)N[C@H]1c2ccccc2C[C@H]1O", "note": "[Indinavir sulfate]", "ThS net change": 457}]}, {"tested_on": "T1, 1N4R p-tau", "test": "p-tau aggregation modulator screen of 1280-compound library (ThS fluorescence net change over 16 h)", "format": "biochemical", "design": "key to PTAI>3SD: *: PTAI>3SD", "conditions": "1280-compound library screen; ThS fluorescence net change over 16 h", "values": [{"molecule": "NC1CONC1=O", "note": "(stereo in doubt) [(S)-(-)-Cycloserine]", "ThS net change": 391}, {"molecule": "CC(=O)OCC(=O)[C@@]12OC(C)(C)O[C@@H]1C[C@H]1[C@@H]3C[C@H](F)C4=CC(=O)C=C[C@]4(C)[C@@]3(F)[C@@H](O)C[C@@]12C", "note": "[Fluocinonide]", "ThS net change": 387}, {"molecule": "CC1(C)S[C@@H]2[C@H](NC(=O)Cc3ccccc3)C(=O)N2[C@H]1C(=O)O", "note": "[Benzylpenicillin sodium]", "ThS net change": 398}, {"molecule": "COc1cc2nc(N(C)CCCNC(=O)C3CCCO3)nc(N)c2cc1OC", "note": "(centres unmarked) [Alfuzosin hydrochloride]", "ThS net change": 391}, {"molecule": "CCN(CC)CCNC(=O)c1ccc(N)cc1", "note": "[Procainamide hydrochloride]", "ThS net change": 379}, {"molecule": "COC(=O)N/N=C/c1c[n+]([O-])c2ccccc2[n+]1[O-]", "note": "[Carbadox]", "ThS net change": 380}, {"molecule": "CCN(CC)C(=O)Nc1ccc(OCC(O)CNC(C)(C)C)c(C(C)=O)c1", "note": "(centres unmarked) [Celiprolol HCl]", "ThS net change": 396}, {"molecule": "CCN(CCO)CCCC(C)Nc1ccnc2cc(Cl)ccc12", "note": "(centres unmarked) [Hydroxychloroquine sulfate]", "ThS net change": 380}, {"molecule": "C[N+]1(C)CCC(OC(=O)C(O)(c2ccccc2)C2CCCC2)C1", "note": "(centres unmarked) [Glycopyrrolate]", "ThS net change": 401}, {"molecule": "Nc1cc(C(Cl)=C(Cl)Cl)c(S(N)(=O)=O)cc1S(N)(=O)=O", "note": "[Clorsulon]", "ThS net change": 393}, {"molecule": "C[C@H](CCC(=O)O)[C@H]1CC[C@H]2[C@@H]3[C@H](O)C[C@@H]4C[C@H](O)CC[C@]4(C)[C@H]3CC[C@]12C", "note": "[Chenodiol]", "ThS net change": 394}]}, {"tested_on": "T1, 1N4R p-tau", "test": "p-tau aggregation modulator screen of 1280-compound library (ThS fluorescence net change over 16 h)", "format": "biochemical", "design": "key to PTAI>3SD: *: PTAI>3SD", "conditions": "1280-compound library screen; […]", "values": [{"molecule": "C[C@]12Cc3c[nH]nc3C[C@@H]1CC[C@@H]1[C@@H]2CC[C@@]2(C)[C@H]1CC[C@]2(C)O", "note": "[Stanozolol]", "ThS net change": 403}, {"molecule": "NC(=NCc1ccccc1)NC(=O)c1nc(Cl)c(N)nc1N", "note": "[Benzamil hydrochloride]", "ThS net change": 379}, {"molecule": "C[C@]12CC[C@H]3C(=CCc4cc(O)ccc43)[C@@H]1CCC2=O", "note": "[Equilin]", "ThS net change": 389}]}, {"tested_on": "T1, 1N4R p-tau", "test": "p-tau aggregation modulator screen of 1280-compound library (ThS fluorescence net change over 16 h)", "format": "biochemical", "design": "key to PTAI>3SD: *: PTAI>3SD", "conditions": "flag: p-tau aggregation inhibitor, ThS net change more than 3 SD from mean", "values": [{"molecule": "COc1ccc(-c2cc(=S)ss2)cc1", "note": "[Anethole-trithione]", "PTAI>3SD": "*"}]}, {"tested_on": "T1, 1N4R p-tau", "test": "p-tau aggregation modulator screen of 1280-compound library (ThS fluorescence net change over 16 h)", "format": "biochemical", "design": "key to PTAI>3SD: *: PTAI>3SD", "conditions": "library screen, ThS fluorescence net change over 16 h with p-tau", "values": [{"molecule": "CN1CCN(CCCN2c3ccccc3Sc3ccc(C(F)(F)F)cc32)CC1", "note": "[Trifluoperazine dihydrochloride]", "ThS net change": 299}, {"molecule": "CCSc1ccc2c(c1)N(CCCN1CCN(C)CC1)c1ccccc1S2.O=C(O)CC(O)C(=O)O.O=C(O)CC(O)C(=O)O", "note": "[Thiethylperazine dimalate]", "ThS net change": 317}, {"molecule": "Cc1ncc([N+](=O)[O-])n1CC(C)O", "note": "(centres unmarked) [Secnidazole]", "ThS net change": 327}, {"molecule": "COc1ccc(-c2cc(=S)ss2)cc1", "note": "[Anethole-trithione]", "ThS net change": 46}, {"molecule": "CN(C)CCCN1c2ccccc2Sc2ccccc21", "note": "[Promazine hydrochloride]", "ThS net change": 306}]}, {"tested_on": "T1, 1N4R p-tau", "test": "p-tau aggregation modulator screen of 1280-compound library (ThS fluorescence net change over 16 h)", "format": "biochemical", "design": "key to PTAI>3SD: *: PTAI>3SD", "conditions": "p-tau aggregation modulator screen of 1280-compound library; ThS fluorescence net change", "values": [{"molecule": "CC1=C(/C=C/C(C)=C/C=C/C(C)=C/C(=O)O)C(C)(C)CCC1", "note": "[Retinoic acid]", "ThS net change": 374}, {"molecule": "Cc1ncc([N+](=O)[O-])n1CCO", "note": "[Metronidazole]", "ThS net change": 365}, {"molecule": "C[N+]1(CCCCC[N+]2(C)CCCC2)CCCC1.O=C([O-])C(O)C(O)C(=O)O.O=C([O-])C(O)C(O)C(=O)O", "note": "[Pentolinium bitartrate]", "ThS net change": 369}, {"molecule": "CN(C)CCOC(C)(c1ccccc1)c1ccccn1", "note": "(centres unmarked) [Doxylamine succinate]", "ThS net change": 367}, {"molecule": "C[C@H](CS)C(=O)N1CCC[C@H]1C(=O)O", "note": "[Captopril]", "ThS net change": 370}, {"molecule": "CN[C@@H]1[C@H](O[C@H]2[C@H](O[C@H]3[C@H](O)[C@@H](O)[C@H](NC(=N)N)[C@@H](O)[C@@H]3NC(=N)N)O[C@@H](C)[C@]2(O)CO)O[C@@H](CO)[C@H](O)[C@H]1O", "note": "[Dihydrostreptomycin sulfate]", "ThS net change": 331}, {"molecule": "Cl.Nc1c(Br)cc(Br)cc1CN[C@H]1CC[C@H](O)CC1", "note": "[Ambroxol hydrochloride]", "ThS net change": 364}, {"molecule": "NS(=O)(=O)c1cc2c(cc1Cl)N=CNS2(=O)=O", "note": "[Chlorothiazide]", "ThS net change": 359}, {"molecule": "c1ccc([C@H]2CN3CCSC3=N2)cc1", "note": "[Levamisole hydrochloride]", "ThS net change": 376}, {"molecule": "CCCN(CCC)C(=O)C(CCC(=O)O)NC(=O)c1ccccc1", "note": "(centres unmarked) [Proglumide]", "ThS net change": 331}, {"molecule": "CN(C)CCN1C(=O)c2ccccc2N(C)c2ccccc21.Cl", "note": "[Dibenzepine hydrochloride]", "ThS net change": 368}, {"molecule": "CC(=O)OCC(=O)[C@@]1(O)[C@H](C)C[C@H]2[C@@H]3CCC4=CC(=O)C=C[C@]4(C)[C@@]3(F)[C@@H](O)C[C@@]21C", "note": "[Dexamethasone acetate]", "ThS net change": 343}, {"molecule": "CN[C@@H]1[C@H](O)[C@H](NC)[C@H]2O[C@@]3(O)C(=O)C[C@@H](C)O[C@H]3O[C@@H]2[C@H]1O.Cl.Cl", "note": "[Spectinomycin dihydrochloride]", "ThS net change": 361}, {"molecule": "CC(N)C12CC3CC(CC(C3)C1)C2", "note": "(centres unmarked) [Rimantadine Hydrochloride]", "ThS net change": 365}]}, {"tested_on": "T1, 1N4R p-tau", "test": "p-tau aggregation modulator screen of 1280-compound library (ThS fluorescence net change over 16 h)", "format": "biochemical", "design": "key to PTAI>3SD: *: PTAI>3SD", "conditions": "p-tau aggregation modulator screen of 1280-compound library; […]", "values": [{"molecule": "NCC1(CC(=O)O)CCCCC1", "note": "[Gabapentin]", "ThS net change": 363}, {"molecule": "CCC(=O)OCC(=O)[C@@]1(OC(=O)CC)[C@H](C)C[C@H]2[C@H]3[C@H]([C@@H](O)C[C@@]21C)[C@@]1(C)C=CC(=O)C=C1C[C@H]3Cl", "note": "[Alclometasone dipropionate]", "ThS net change": 363}, {"molecule": "Oc1ccc2c3c1O[C@H]1[C@@H](O)CC[C@@]4(O)[C@@H](C2)N(CC2CCC2)CC[C@]314", "note": "[Nalbuphine hydrochloride]", "ThS net change": 371}]}, {"tested_on": "T1, 1N4R p-tau", "test": "p-tau aggregation modulator screen of 1280-compound library (ThS fluorescence net change over 16 h)", "format": "biochemical", "design": "key to PTAI>3SD: *: PTAI>3SD", "conditions": "p-tau aggregation modulator screen of the compound library, ThS fluorescence net change", "values": [{"molecule": "O=C(O)CCc1nc(-c2ccccc2)c(-c2ccccc2)o1", "note": "[Oxaprozin]", "ThS net change": 425}, {"molecule": "COCC1=C(C(=O)OC(C)OC(=O)OC(C)C)N2C(=O)[C@@H](NC(=O)/C(=N\\OC)c3csc(N)n3)[C@H]2SC1", "note": "(some centres unmarked) [Cefpodoxime proxetil]", "ThS net change": 454}, {"molecule": "CN(C/C=C/C#CC(C)(C)C)Cc1cccc2ccccc12", "note": "[Terbinafine]", "ThS net change": 506}, {"molecule": "C[C@H]1O[C@H](O[C@H]2[C@H](O)[C@@H](O)[C@@H](O[C@H]3[C@H](O)[C@@H](O)C(O)O[C@@H]3CO)O[C@@H]2CO)[C@H](O)[C@@H](O)[C@@H]1N[C@H]1C=C(CO)[C@@H](O)[C@H](O)[C@H]1O", "note": "(some centres unmarked) [Acarbose]", "ThS net change": 414}, {"molecule": "Clc1ccc2c(c1)C(N1CCNCC1)=Nc1ccccc1O2", "note": "[Amoxapine]", "ThS net change": 416}, {"molecule": "Olmesartan", "ThS net change": 482}, {"molecule": "C[C@H](CCC(=O)O)[C@H]1CC[C@H]2[C@@H]3CC[C@@H]4C[C@H](O)CC[C@]4(C)[C@H]3CC[C@]12C", "note": "[Lithocholic acid]", "ThS net change": 566}, {"molecule": "CCOc1ccc2c(c1)C(C)=CC(C)(C)N2", "note": "[Ethoxyquin]", "ThS net change": 460}, {"molecule": "CS(=O)(=O)c1ccc([C@@H](O)[C@@H](CF)NC(=O)C(Cl)Cl)cc1", "note": "[Florfenicol]", "ThS net change": 433}, {"molecule": "CC(C)(Oc1ccc(C2CC2(Cl)Cl)cc1)C(=O)O", "note": "(centres unmarked) [Ciprofibrate]", "ThS net change": 448}, {"molecule": "Cc1c(OCC(F)(F)F)ccnc1C[S+]([O-])c1nc2ccccc2[nH]1", "note": "(centres unmarked) [Lansoprazole]", "ThS net change": 510}]}]}
